In patent US20050107346A1, “N-acetylcolchinol-o-phosphate combination therapies with vascular damaging activity” (ASTRAZENECA AB, priority 2000, published 2005):

Assays:
[1] = system: human Calu 6 tumour cells; experiment: Calu 6 tumour model growth delay, ZD6126 in combination with cisplatin; type: in vivo; conditions: athymic nude mice; ZD6126 100 mg/kg i.p. x5 days; cisplatin 4 mg/kg i.p. day 0
Procedure: In a second tumour model, Calu 6, the advantage of combining ZD6126 and cisplatin (cis-Platinum(II)Diammine Dichloride—Sigma P-4394) was confirmed. Athymic nude mice were implanted subcutaneously with 1×10^6 human Calu 6 tumour cells (obtained from American Type Culture Collection, 10801 University Boulevard, Manassas, Va. 20110-2209 Cat. no. Hm-56) and tumours allowed to grow until they were approximately 9 mm in diameter. Groups of 10 tumour bearing mice were then treated as follows:
ZD6126 alone was dosed 100 mg/kg i.p. on days 0, 1, 2, 3, 4.
Cisplatin alone was dosed 4 mg/kg i.p. on day 0.
In the combination arm cisplatin 4 mg/kg i.p. was dosed on day 0, and ZD6126 100 mg/kg i.p. was dosed on days 1, 2, 3, 4 and 5.
The combination of cisplatin and ZD6126 gave a growth delay (time to reach 2× starting volume) of 20.5 days compared to control tumours.

[2] = system: murine adenocarcinoma CaNT tumour; experiment: CaNT tumour model growth delay, ZD6126 in combination with cisplatin; type: in vivo, mice
Procedure: ZD6126 alone was dosed on days 0, 2 and 4 using a split dose regimen of 100 mg/kg ZD6126, followed by a 2 hour interval, followed by a further 100 mg/kg ZD6126; doses were given intraperitoneally (i.p.).
Cisplatin (David Bull Laboratories) alone was dosed at 5 mg/kg i.p on day 0.
(§1) The combination treatment consisted of: • Day 0: ZD6126 100 mg/kg i.p., followed by a 2 hour interval, followed by a further 100 mg/kg ZD6126 i.p; and cisplatin 5 mg/kg given 10 minutes before first ZD6126 dose. • Days 2 and 4: ZD6126 100 mg/kg i.p., followed by a 2 hour interval, followed by a further 100 mg/kg ZD6126 i.p..
ZD6126 alone was dosed on days 0, 4, 7 and 11 using a split dose regimen of ZD6126 100 mg/kg i.p., followed by a 2 hour interval, followed by a further 100 mg/kg ZD6126 i.p.. Cisplatin alone was dosed at 5 mg/kg i.p on day 0 and day 7.
as §1, with “• Days 0 and 7:” for “• Day 0:”, “ZD6126 i.p.;” for “ZD6126 i.p; and”, “cisplatin” for “cisplatin 5 mg/kg”, “Days 3, 7” for “Days 2”, “and 10:” for “and 4:”

murine KHT sarcoma [3] = experiment: KHT sarcoma tumour cell survival (excision and colony formation), cisplatin plus ZD6126; type: in vivo; conditions: 10 mg/kg cisplatin i.p. alone; assessed 24 hours later
Procedure: In the murine KHT sarcoma model (Lingyun Li, B. S. et al, Int. J. Radiation Oncology Biol. Phys 42, 899-903, 1998) tumours were treated with either 10 mg/kg cisplatin i.p. alone or 10 mg/kg cisplatin plus ZD6126 (10-100 mg/kg i.p.), cisplatin given 1 hour prior to ZD6126. The effects of the treatments on tumour cell survival was assessed 24 hours later by excising the tumour, disaggregating the cells and determining the number of colonies formed after 10-14 days. Surviving fraction compared to untreated cells was then determined.

[4] = system: FaDu cells (human squamous cell carcinoma of the pharynx); experiment: FaDu tumour model growth delay, ZD6126 in combination with paclitaxel; type: in vivo; conditions: SCID mice; single dose ZD6126 125 mg/kg i.p.; paclitaxel 15 mg/kg i.p.
Procedure: In a third tumour model 5×10^5FaDu cells (human squamous cell carcinoma of the pharynx) were implanted onto the rear dorsum of 12-16 week old, female SCID mice. When the tumours had become established they were excised and cut into small tumour fragments approximately 1 mm^3. These fragments were implanted subcutaneously into further SCID mice. Once these tumours had become established (approximately 6 mm diameter) mice were treated with either a single dose of ZD6126 (125 mg/kg i.p.) alone, a single dose of paclitaxel (Taxol-BMS) (15 or 30 mg/kg i.p.) alone or the combination of a single dose of paclitaxel (15 mg/kg i.p.) and ZD6126 (125 mg/kg i.p.), paclitaxel being given 15 minutes before ZD6126.

CaNT tumours = experiment: CaNT tumour model growth delay, ZD6126 in combination with ionising radiation; type: in vivo, mice; conditions: ZD6126 125 mg/kg i.p. days 0-4 and 7-11; radiation 15 Gy days 0 and 7
Procedure: The activity of combining ZD6126 and radiation in the CaNT tumour model was also investigated. Tumours were treated with either radiation alone (15 Gy days 0 and 7), ZD6126 alone (single dose of ZD6126 125 mg/kg i.p. on days 0, 1, 2, 3, 4, 7, 8, 9, 10 and 11), or a combination of both (15 Gy days 0 and 7, ZD6126 125 mg/kg i.p. on days 0, 1, 2, 3, 4, 7, 8, 9, 10 and 11). On the days radiation and ZD6126 were administered together,radiation treatment was given 3 hours after ZD6126 administration. Radiation was administered by placing the mice in lead boxes so that only the tumour bearing portion of the rear dorsum was exposed to a horizontal X-ray beam (Sheldon and Hill, B J C, 35, 795-808, […]). Mice were irradiated with 240 kV X-rays at a dose rate of 3.6 Gy/min.

murine KHT sarcoma [5] = experiment: KHT sarcoma tumour cell survival (excision and colony formation), ZD6126 and radiation; type: in vivo, mice
Procedure: The murine KHT sarcoma grown in C3H mice was also used to confirm the advantage of combining ZD6126 and radiation. Tumours were treated with either radiation alone (0, 5, 10, 15 or 20 Gy single dose), ZD6126 100 mg/kg i.p., or radiation followed 1 hour later by ZD6126 100 mg/kg i.p.. The effects of either radiation alone, ZD6126 alone or the combination on tumour cell survival was assessed 24 hours later by excising the tumour, disaggregating the cells and determining the number of colonies formed after 10-14 days. Surviving fraction compared to untreated cells was then determined.

[6] = system: murine adenocarcinoma CaNT tumour; experiment: In vivo cell survival excision assay, ZD6126 single versus divided doses in CaNT tumours; parameters: species or system mice
Procedure: In vivo cell survival was measured using an excision assay (D J Chaplin et al., Anticancer Research 19: 189-196 (1999)).
For each of the assays a) and b) below, the surviving fraction of tumour cells was determined as follows:
Tumours were excised at about 18 hours after treatment, weighed and disaggregated for 1 hour at 37 degrees Celsius in an enzyme cocktail containing 1 mg/ml pronase, 0.5 mg/ml DNAase and 0.5 mg/ml collagenase. Haemocytometer counts of trypan blue-excluding cells were made and viable cells seeded in appropriate concentrations to yield about 50 colonies/dish after in vitro incubation. Heavily irradiated feeder cells (V79 cells) were used at a concentration of 25,000/ml to support the growth of the surviving CaNT cells. The data were calculated as surviving fraction per gram of tumour.
ZD6126 was administered as a single dose of […] intra-peritoneally (i.p.) in saline with a small amount of 1% sodium carbonate added to aid the dissolution of ZD6126.
ZD6126 was dosed using a split dose regimen of 100 mg/kg ZD6126, followed by a time interval, followed by a further 100 mg/kg ZD6126; doses were given intraperitoneally (i.p.) in saline with a small amount of 1% sodium carbonate added to aid the dissolution of ZD6126.
The time intervals used were 1, 2, 3, 4 and 6 hours.
This improved effect varied with the proportion of total dose given in the first and second doses.
ZD6126 was dosed using split dose regimens of: • i) 25 mg/kg ZD6126, followed by a 2 hour interval, followed by a further 175 mg/kg ZD6126; • ii) 50 mg/kg ZD6126, followed by a 2 hour interval, followed by a further 150 mg/kg ZD6126; • iii) 100 mg/kg ZD6126, followed by a 2 hour interval, followed by a further 100 mg/kg ZD6126; • iv) 150 mg/kg ZD6126, followed by a 2 hour interval, followed by a further 50 mg/kg ZD6126; • v) 175 mg/kg ZD6126, followed by a 2 hour interval, followed by a further 25 mg/kg ZD6126;
All doses were given intraperitoneally (i.p.) in saline with a small amount of 1% sodium carbonate added to aid the dissolution of ZD6126.

[7] = study 1, ZD6126 2x100 mg/kg i.p. 2 h apart days 0, 2, 4, cisplatin 5 mg/kg i.p. day 0
[8] = study 2, ZD6126 2x100 mg/kg i.p. 2 h apart days 0, 4, 7, 11, cisplatin 5 mg/kg i.p. days 0 and 7

SMILES	growth delay (time to reach 2× starting volume) compared to control tumours [1] [days]	Mean growth delay (vs control) - days [2, 7] [days]	Mean growth delay (vs control) - days [2, 8] [days]	cell killing (murine KHT sarcoma [3])	Mean growth delay (vs control) - days [4] [days]	Mean growth delay (vs control) - days (CaNT tumours) [days]	tumour cells killed (murine KHT sarcoma [5]; ZD6126 alone 100 mg/kg)	enhancement in cell killing (murine KHT sarcoma [5]; ZD6126 combined with radiation doses of 5, 10 or 15 Gy)	Plus ZD6126 % cell survival (murine KHT sarcoma [5]; radiation dose 0 Gy, ZD6126 100 mg/kg i.p., C3H mice) [%]	ZD6126 Enhancement (murine KHT sarcoma [5]; radiation dose 0 Gy, ZD6126 100 mg/kg i.p., over controls) [fold]	Plus ZD6126 % cell survival (murine KHT sarcoma [5]; radiation dose 5 Gy, ZD6126 100 mg/kg i.p. 1 hour later) [%]	ZD6126 Enhancement (murine KHT sarcoma [5]; radiation dose 5 Gy, ZD6126 100 mg/kg i.p.) [fold]	Plus ZD6126 % cell survival (murine KHT sarcoma [5]; radiation dose 10 Gy, ZD6126 100 mg/kg i.p. 1 hour later) [%]	ZD6126 Enhancement (murine KHT sarcoma [5]; radiation dose 10 Gy, ZD6126 100 mg/kg i.p.) [fold]	Plus ZD6126 % cell survival (murine KHT sarcoma [5]; radiation dose 15 Gy, ZD6126 100 mg/kg i.p. 1 hour later) [%]	ZD6126 Enhancement (murine KHT sarcoma [5]; radiation dose 15 Gy, ZD6126 100 mg/kg i.p.) [fold]	split dose proportion giving the best anti-tumour effect ([6]; 100 mg/kg, 2 hour interval, further 100 mg/kg i.p.)	anti-tumour effect, as measured by surviving fraction of tumour cells, divided doses versus single dose ([6]; divided doses 2 hours apart (25+175, 50+150, 100+100, 150+50, 175+25 mg/kg i.p.) vs single 200 mg/kg)	surviving fraction per gram of tumour, divided doses versus single dose ([6]; two doses of 100 mg/kg i.p. separated by 2, 3 or 4 hours vs a single 200 mg/kg dose, about 18 hours after treatment)
N.N.[Cl-].[Cl-].[Pt+2] [Cisplatin, cis-Platinum(II)Diammine Dichloride, reference compound]	6.0	2.1	7.7	approximately 98%	–	–	–	–	–	–	–	–	–	–	–	–	–	–	–
CC(=O)O[C@H]1C(=O)[C@@]2(C)[C@H]([C@H](OC(=O)c3ccccc3)[C@]3(O)C[C@H](OC(=O)[C@H](O)[C@@H](NC(=O)c4ccccc4)c4ccccc4)C(C)=C1C3(C)C)[C@]1(OC(C)=O)CO[C@@H]1C[C@@H]2O [Paclitaxel, paclitaxel, reference compound]	–	–	–	–	5.1	–	–	–	–	–	–	–	–	–	–	–	–	–	–
COc1cc2c(c(OC)c1OC)-c1ccc(OP(=O)(O)O)cc1[C@@H](NC(C)=O)CC2 [ZD6126, (5S)-5-(acetylamino)-9,10,11-trimethoxy-6,7-dihydro-5H-dibenzo[a,c]cyclohepten-3-yl dihydrogen phosphate]	10.1	6.5	9.9	–	4.3	9.1	97-98%	100-200 fold	2.5	40	0.16	125	0.015	100	0.0016	219	best effect was seen with equal split doses	greater with divided doses of ZD6126 than with a single dose	significantly more effective
